This is an account of results in US20100209489A1, “Formulations of desvenlafaxine” (Supernus Pharmaceuticals, Inc., priority 2009, published 2010).

Molecules are shown by their SMILES. Like-named read-outs stand apart in the source and are kept apart here.

For data set [1] the following is noted: DI water, room temperature overnight. On the procedure: All samples were prepared with DI water, pH 5.5. Controls were prepared similarly without the use of modulators. All test samples were mixed overnight at room temperature. The samples were then filtered and analyzed using HPLC-UV method.
The conditions of data set [2]: cited from earlier work.

With `CN(C)CC(c1ccc(O)cc1)C1(O)CCCCC1.Cl.O` (single isomer, unassigned; (-)) [(−)-O-desmethyl venlafaxine HCl monohydrate], the solubility entry reads like this: (at about pH 6.0) “less than 100 mg/mL”; (higher pH, close to the physiological pH) “less than 1 mg/mL”; (low pH, for example pH 1.0) “a few hundred”. The “API Solubility” value in data set [1] (control without modulators, sample pH 5.2-5.5) is on record as 611 mg/mL; in data set [1] (with Alginic acid, sample pH 2.4-2.7), 568 mg/mL; in data set [1] (with Ascorbic acid, sample pH 2.7-3.0) it was 597 mg/mL; in data set [1] (with Beta cyclodextrin, sample pH 5.2-5.5) it was 502 mg/mL; in data set [1] (with Carbopol 941, sample pH 3.2-3.5), 587 mg/mL; in data set [1] (with Citric acid, sample pH 2.1-2.4), 612 mg/mL. Besides, the “API Solubility” value in data set [1] (with Eudragit L100, sample pH 3.2-3.5) amounted to 547 mg/mL; in data set [1] (with Fumaric acid, sample pH <1.8), 639 mg/mL; in data set [1] (with Gelucire 44/14, sample pH 5.2-5.5) it was 521 mg/mL; in data set [1] (with HPMCP, sample pH 2.7-3.0) it was 572 mg/mL; in data set [1] (with Hydroxypropyl beta cyclodextrin, sample pH 5.5-5.7) it was 589 mg/mL; in data set [1] (with Klucel LF, sample pH 5.5), 536 mg/mL. Besides, the “API Solubility” value in data set [1] (with Kollidone 25, sample pH 5.2-5.5) is 610 mg/mL; in data set [1] (with Kollidone/Tartaric acid, sample pH 2.1-2.4), 661 mg/mL; in data set [1] (with Lactose, sample pH 5.2-5.5), 665 mg/mL; in data set [1] (with Malic acid, sample pH 1.5-2.0), 677 mg/mL; in data set [1] (with Maltrin M150/Xylitol/Sodium lauryl sulfate/Gelucire 44/14, sample pH 5.2-5.5), 432 mg/mL; in data set [1] (with Maltrin M150, sample pH 5.2-5.5), 565 mg/mL. Also, the “API Solubility” value in data set [1] (with Mannitol/Sorbitol/Tartaric acid/Eudragit L100, sample pH <1.8) is 521 mg/mL; in data set [1] (with Mannitol, sample pH 5.2-5.5), 613 mg/mL; in data set [1] (with Methocel E5, sample pH 5.7) it was 504 mg/mL; in data set [1] (with Methylcyclodextrin, sample pH 5.5), 561 mg/mL; in data set [1] (with PEG 3350, sample pH 5.2-5.5) it was 602 mg/mL; in data set [1] (with PEG 8000, sample pH 5.2-5.5) it was 569 mg/mL. The “API Solubility” value in data set [1] (with Poloxamer 188, sample pH 5.2-5.5) is 552 mg/mL; in data set [1] (with Sodium Docusate, sample pH 6.3-6.5), 539 mg/mL; in data set [1] (with Sodium lauryl sulfate, sample pH 6.3-6.6), 524 mg/mL; in data set [1] (with Sorbitol, sample pH 5.2-5.5) it was 549 mg/mL; in data set [1] (with Tartaric acid, sample pH 1.5-2.0), 719 mg/mL; in data set [1] (with Triethyl citrate, sample pH 5.2-5.5), 643 mg/mL. Moreover, the “API Solubility” value in data set [1] (with Tween 80, sample pH 5.2-5.5) worked out at 544 mg/mL; in data set [1] (with Vitamin E TPGS, sample pH 5.2-5.5), 535 mg/mL; in data set [1] (with Xylitol, sample pH 5.2-5.5), 547 mg/mL.
In the case of `CN(C)CC(c1ccc(O)cc1)C1(O)CCCCC1` (racemic) [desvenlafaxine], in data set [2] (at higher doses (above 50 mg/day)), the “adverse events and discontinuations” value is “more frequent”. Moreover, the “efficacy in clinical studies” value in data set [2] (dose of 50-400 mg/day) was “effective”. The “additional benefit in clinical studies” value in data set [2] (doses higher than 50 mg/day) was “no additional benefit”.
